The values below come from patent US9073940B2, “Tricyclic pyrazol amine derivatives” (MERCK SERONO SA, priority 2009, dated 2015).

For this test, the system named is 4 PI3K isoforms (Human recombinant GST-PI3K). The test is described as follows: PI3K scintillation proximity assay, best IC50 obtained with the four isoforms (alpha, beta, delta, gamma). Type of test: biochemical. The note with it: best IC50 obtained with the four isoforms of PI3K; read-out: Best potency measured on the 4 PI3K isoforms.
As to `O=C(c1nn(-c2ccccc2Br)c2c1CS(=O)(=O)c1ccccc1-2)N1CCOCC1` [Example 20, 1-(2-bromophenyl)-3-(morpholin-4-ylcarbonyl)-1,4-dihydrothiochromeno[4,3-c]pyrazole 5,5-dioxide], the IC50 is 5500 nM.

Turning to `Cn1nc(C(=O)N2CCOCC2)c2c1-c1cccc(F)c1S(=O)(=O)C2` [Example 14, 6-fluoro-1-methyl-3-(morpholin-4-ylcarbonyl)-1,4-dihydrothiochromeno[4,3-c]pyrazole 5,5-dioxide], the IC50 is 687 nM.

As for `O=C(c1nn(C2CCCN(CCN3CC(F)(F)C3)C2)c2c1CS(=O)(=O)c1ccccc1-2)N1CCOCC1` (stereo not shown) [Example 273, 1-{1-[2-(3,3-Difluoroazetidin-1-yl)ethyl]piperidin-3-yl}-3-(morpholin-4-ylcarbonyl)-1,4-dihydrothiochromeno[4,3-c]pyrazole 5,5-dioxide], the IC50 was 36 nM.

On to `COc1ccc2c(c1)S(=O)(=O)Cc1c(C(=O)N3CCOCC3)nn([C@H]3CCCN(CCC4CCOCC4)C3)c1-2` (single isomer, unassigned) [Example 369], for which the IC50 turned out to be 27 nM.

In the case of `O=C(c1nn(-c2cccc(CN3CCSCC3)c2)c2c1CS(=O)(=O)c1ccccc1-2)N1CCOCC1` [Example 236, 3-(Morpholin-4-ylcarbonyl)-1-[3-(thiomorpholin-4-ylmethyl)phenyl]-1,4-dihydrothiochromeno[4,3-c]pyrazole 5,5-dioxide], the IC50 came to 232 nM.

In the case of `O=C(c1nn([C@H]2CCCN(CCN3CCOCC3)C2)c2c1CS(=O)(=O)c1c(Cl)cccc1-2)N1CCOCC1` (single isomer, unassigned) [Example 386, 6-chloro-3-(morpholin-4-ylcarbonyl)-1-[1-(2-morpholin-4-ylethyl)piperidin-3-yl]-1,4-dihydrothiochromeno[4,3-c]pyrazole 5,5-dioxide], the IC50 was 30 nM.

In the case of `O=C(c1nn(-c2ccc(CN3CCC(F)CC3)nc2)c2c1CS(=O)(=O)c1ccccc1-2)N1CCOCC1` [Example 217, 1-{6-[(4-Fluoropiperidin-1-yl)methyl]pyridin-3-yl}-3-(morpholin-4-ylcarbonyl)-1,4-dihydrothiochromeno[4,3-c]pyrazole 5,5-dioxide], the IC50 is 1200 nM.

With `O=C(c1nn([C@H]2CCCN(CCN3CCC(F)C3)C2)c2c1CS(=O)(=O)c1ccccc1-2)N1CCOCC1` (single isomer, unassigned) [Example 367], the IC50 worked out at 32 nM.

As for `O=C(c1nn(C2CCCN(CCn3cccn3)C2)c2c1CS(=O)(=O)c1ccccc1-2)N1CCOCC1` (stereo not shown) [Example 263, 3-(Morpholin-4-ylcarbonyl)-1-{1-[2-(1H-pyrazol-1-yl)ethyl]piperidin-3-yl}-1,4-dihydrothiochromeno[4,3-c]pyrazole 5,5-dioxide], the IC50 was 169 nM.

Regarding `COCc1noc(-c2cccc(-n3nc(C(=O)N4CCOCC4)c4c3-c3ccccc3S(=O)(=O)C4)c2)n1` [Example 214, 1-{3-[3-(Methoxymethyl)-1,2,4-oxadiazol-5-yl]phenyl)-3-(morpholin-4-ylcarbonyl)-1,4-dihydrothiochromeno[4,3-c]pyrazole 5,5-dioxide], the IC50 came out at 4190 nM.

As for `COCc1ccc(-n2nc(C(=O)N3CCOCC3)c3c2-c2ccccc2S(=O)(=O)C3)cc1` [Example 278, 1-[4-(Methoxymethyl)phenyl]-3-(morpholin-4-ylcarbonyl)-1,4-dihydrothiochromeno[4,3-c]pyrazole 5,5-dioxide], the IC50 was found to be 667 nM.

As for `COCCNc1ccc2c(c1)-c1c(c(C(=O)N3CCOCC3)nn1-c1ccccc1)CS2(=O)=O` [Example 156, N-(2-Methoxyethyl)-3-(morpholin-4-ylcarbonyl)-1-phenyl-1,4-dihydrothiochromeno[4,3-c]pyrazol-8-amine 5,5-dioxide], the IC50 turned out to be 902 nM.

In the case of `O=C(c1nn(-c2ccc(Br)cc2)c2c1CS(=O)(=O)c1ccccc1-2)N1CCOCC1` [Example 27, 1-(4-bromophenyl)-3-(morpholin-4-ylcarbonyl)-1,4-dihydrothiochromeno[4,3-c]pyrazole 5,5-dioxide], the IC50 turned out to be 1120 nM.

Regarding `O=C(c1nn(Cc2cc(Cl)cs2)c2c1CS(=O)(=O)c1ccccc1-2)N1CCOCC1` [Example 240, 1-[(4-Chloro-2-thienyl)methyl]-3-(morpholin-4-ylcarbonyl)-1,4-dihydrothiochromeno[4,3-c]pyrazole 5,5-dioxide], the IC50 was 624 nM.

Regarding `O=C(c1nn([C@H]2CCCN(CCC3CCOCC3)C2)c2c1CS(=O)(=O)c1ncccc1-2)N1CCOCC1` (single isomer, unassigned) [Example 422, 3-(morpholin-4-ylcarbonyl)-1-{1-[2-(tetrahydro-2H-pyran-4-yl)ethyl]piperidin-3-yl}-1,4-dihydropyrazolo[3′,4′:4,5]thiopyrano[2,3-b]pyridine 5,5-dioxide], the IC50 came to 16 nM.

Take `O=C(c1nn([C@H]2CCCN(C(=O)C3CCOCC3)C2)c2c1CS(=O)(=O)c1ccccc1-2)N1CCOCC1` [Example 397]: the IC50 was 1500 nM.

`COC1CCN(Cc2cccc(-n3nc(C(=O)N4CCOCC4)c4c3-c3ccccc3S(=O)(=O)C4)c2)CC1` [Example 234, 1-{3-[(4-Methoxypiperidin-1-yl)methyl]phenyl}-3-(morpholin-4-ylcarbonyl)-1,4-dihydrothiochromeno[4,3-c]pyrazole 5,5-dioxide]: the IC50 was 240 nM.

Consider `O=C(c1nn(-c2ccccc2)c2c1NS(=O)(=O)c1ccccc1-2)N1CCOCC1` [Example 489, 3-(Morpholin-4-ylcarbonyl)-1-phenyl-1,4-dihydropyrazolo[4,3-c][1,2]benzothiazine 5,5-dioxide], for which the IC50 was determined as 5500 nM.

Turning to `O=C(NC1CCCCC1)N1CCC(n2nc(C(=O)N3CCOCC3)c3c2-c2ccccc2S(=O)(=O)C3)C1` (stereo not shown) [Example 276], the IC50 came out at 875 nM.

Take `O=C(c1nn([C@H]2CCCNC2)c2c1CS(=O)(=O)c1ccccc1-2)N1CCOCC1` (single isomer, unassigned) [Example 359]: the IC50 was found to be 1060 nM.

Turning to `CC(C)(C)OC(=O)N1CCCC(n2nc(C(=O)N3CCOCC3)c3c2-c2ccccc2S(=O)(=O)C3)CC1` (stereo not shown) [Example 257], the IC50 turned out to be 824 nM.

With `O=C(c1nn([C@H]2CCCN(C3CCCOC3)C2)c2c1CS(=O)(=O)c1c(F)cccc1-2)N1CCOCC1` (stereo in doubt) [Example 425, 6-Fluoro-3-(morpholin-4-ylcarbonyl)-1-[1-(tetrahydro-2H-pyran-3-yl)piperidin-3-yl]-1,4-dihydrothiochromeno[4,3-c]pyrazole 5,5-dioxide], the IC50 was 25 nM.

For `Cc1nc(-c2cccc(-n3nc(C(=O)N4CCOCC4)c4c3-c3ccccc3S(=O)(=O)C4)c2)n[nH]1` [Example 200, 1-[3-(5-Methyl-1H-1,2,4-triazol-3-yl)phenyl]-3-(morpholin-4-ylcarbonyl)-1,4-dihydrothiochromeno[4,3-c]pyrazole 5,5-dioxide], the IC50 was determined as 4860 nM.

`O=C(c1nn(CC2CCCO2)c2c1CS(=O)(=O)c1ccccc1-2)N1CCOCC1` (stereo not shown) [Example 45, 3-(morpholin-4-ylcarbonyl)-1-(tetrahydrofuran-2-ylmethyl)-1,4-dihydrothiochromeno[4,3-c]pyrazole 5,5-dioxide]: the IC50 came out at 1560 nM.

Regarding `Cn1nc(C(=O)N2CCOCC2)c2c1-c1ccccc1S(=O)(=O)C2Cc1ccccc1` (stereo not shown) [Example 111, 4-Benzyl-1-methyl-3-(morpholin-4-ylcarbonyl)-1,4-dihydrothiochromeno[4,3-c]pyrazole 5,5-dioxide], the IC50 was 5270 nM.

Turning to `O=C(c1nn(C2CCCN(CCN3CCC(F)CC3)C2)c2c1CS(=O)(=O)c1ccccc1-2)N1CCOCC1` (stereo not shown) [Example 281, 1-{1-[2-(4-Fluoropiperidin-1-yl)ethyl]piperidin-3-yl}-3-(morpholin-4-ylcarbonyl)-1,4-dihydrothiochromeno[4,3-c]pyrazole 5,5-dioxide], the IC50 was determined as 34 nM.

Turning to `O=C(c1nn([C@@H]2CCCN(CCF)C2)c2c1CS(=O)(=O)c1ccccc1-2)N1CCOCC1` (single isomer, unassigned) [Example 366], the IC50 turned out to be 7970 nM.

On to `O=C(c1nn(C2CCN(CCCl)C2)c2c1CS(=O)(=O)c1ccccc1-2)N1CCOCC1` (stereo not shown) [Example 274], for which the IC50 came to 305 nM.

`O=C(c1nn(-c2cccc(-c3ccncc3)c2)c2c1CS(=O)(=O)c1ccccc1-2)N1CCOCC1` [Example 187, 3-(Morpholin-4-ylcarbonyl)-1-(3-pyridin-4-ylphenyl)-1,4-dihydrothiochromeno[4,3-c]pyrazole 5,5-dioxide]: the IC50 worked out at 193 nM.

On to `O=C(c1nn(-c2cccc(CO)c2)c2c1CS(=O)(=O)c1ccccc1-2)N1CCOCC1` [Example 141, {3-[3-(Morpholin-4-ylcarbonyl)-5,5-dioxidothiochromeno[4,3-c]pyrazol-1(4H)-yl]phenyl}methanol], for which the IC50 worked out at 2250 nM.

For `Cc1nnc(-c2cccc(-n3nc(C(=O)N4CCOCC4)c4c3-c3ccccc3S(=O)(=O)C4)c2)s1` [Example 183, 1-[3-(5-Methyl-1,3,4-thiadiazol-2-yl)phenyl]-3-(morpholin-4-ylcarbonyl)-1,4-dihydrothiochromeno[4,3-c]pyrazole 5,5-dioxide], the IC50 is 661 nM.

On to `O=C(c1nn(C2CCOCC2)c2c1CS(=O)(=O)c1c(Cl)cccc1-2)N1CCOCC1` [Example 264, 6-Chloro-3-(morpholin-4-ylcarbonyl)-1-(tetrahydro-2H-pyran-4-yl)-1,4-dihydrothiochromeno[4,3-c]pyrazole 5,5-dioxide], for which the IC50 was 673 nM.

Turning to `CC(=O)NCCN1CCC[C@H](n2nc(C(=O)N3CCOCC3)c3c2-c2ccccc2S(=O)(=O)C3)C1` (stereo in doubt) [Example 444, N-(2-{3-[3-(morpholin-4-ylcarbonyl)-5,5-dioxidothiochromeno[4,3-c]pyrazol-1(4H)-yl]piperidin-1-yl}ethyl)acetamide], the IC50 worked out at 105 nM.

Consider `O=C(c1nn(-c2ccccc2)c2c1CS(=O)(=O)c1sccc1-2)N1CCOCC1` [Example 192, 3-(Morpholin-4-ylcarbonyl)-1-phenyl-1,4-dihydrothieno[3′,2′:5,6]thiopyrano[4,3-c]pyrazole 5,5-dioxide], for which the IC50 worked out at 1700 nM.
